Test results as given in ChEMBL document CHEMBL5321272 (J Med Chem, 2023).
Activity calls are given as the source filed them. The calls are words filed in the database; no cut-off is given here.

Columns and labels:
[1] = Selectivity ratio of IC50 for TEC (unknown origin) to IC50 for FLT3-ITD mutant (unknown origin)
[2] = Selectivity ratio of IC50 for IRAK4 (unknown origin) to IC50 for FLT3-ITD mutant (unknown origin)
[3] = Selectivity ratio of IC50 for CDK2 (unknown origin) to IC50 for FLT3-ITD mutant (unknown origin)
MM1.S = assay: Antiproliferative activity against human MM1.S cells assessed as reduction in cell viability incubated for 72 hrs by CellTiter 96 Aqueous One Solution Cell Proliferation Assay; type: functional, cell-based
[4] = Selectivity ratio of IC50 for JAK3 (unknown origin) to IC50 for FLT3-ITD mutant (unknown origin)
[5] = target: Casein kinase I isoform alpha (Homo sapiens, UniProt P48729); assay: Inhibition of CK1 alpha (unknown origin) by HTRF assay
[6] = Selectivity ratio of IC50 for BTK (unknown origin) to IC50 for FLT3-ITD mutant (unknown origin)
[7] = Selectivity ratio of IC50 for CK1alpha (unknown origin) to IC50 for FLT3-ITD mutant (unknown origin)
MOLM-13 = assay: Antitumor activity against human MOLM-13 cells xenografted in NSG mouse assessed as animal's survival rate at 30 mg/kg, po qd for 26 days (reference value: 17 days); type: functional; settings: time 26 day
[8] = Selectivity ratio of IC50 for TAK1 (unknown origin) to IC50 for FLT3-ITD mutant (unknown origin)
[9] = Selectivity ratio of IC50 for IGF1R (unknown origin) to IC50 for FLT3-ITD mutant (unknown origin)
BaF3 = assay: Antiproliferative activity against mouse BaF3 cells harboring FLT3 D835V mutant assessed as reduction in cell viability incubated for 72 hrs by CellTiter 96 Aqueous One Solution Cell Proliferation Assay; type: functional, cell-based

Sequence of Casein kinase I isoform alpha (P48729 whole entry, canonical isoform): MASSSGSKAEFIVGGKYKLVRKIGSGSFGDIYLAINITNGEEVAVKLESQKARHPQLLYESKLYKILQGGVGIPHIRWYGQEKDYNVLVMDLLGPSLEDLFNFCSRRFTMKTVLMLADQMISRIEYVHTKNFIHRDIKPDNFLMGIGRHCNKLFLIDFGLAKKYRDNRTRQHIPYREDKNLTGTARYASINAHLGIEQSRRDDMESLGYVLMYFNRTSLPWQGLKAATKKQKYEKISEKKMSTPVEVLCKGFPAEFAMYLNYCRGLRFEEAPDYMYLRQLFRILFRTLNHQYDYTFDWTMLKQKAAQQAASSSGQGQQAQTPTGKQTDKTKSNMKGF

CC(C)(O)CC(=O)N1CCc2cc(Nc3ncc(C(F)(F)F)c(N[C@H]4CC[C@@H](N)CC4)n3)ccc2C1
Ratio IC50 [1]: > 100
Ratio IC50 [2]: > 100
Ratio IC50 [3]: > 100
Activity (MM1.S): inactive
Ratio IC50 [4]: > 100
IC50 [5]: > 10 µM
Ratio IC50 [6]: > 100
Ratio IC50 [7]: > 100
Survival (MOLM-13): 22 days
Ratio IC50 [8]: > 100
Ratio IC50 [9]: > 100
Activity (BaF3): Active
